pIC50: −log10 of the molar value.
Columns and labels:
[1] = biological target: Human SGLT2 (hSGLT2) (Homo sapiens (Human), UniProt P31639); test: Inhibitory effects on human SGLT2 activities (14C-AMG uptake, sodium-dependent glucose transport assay); format: cell-based; settings: hSGLT2-expressing CHO cells, 37° C. for 2 h, single determinations
Summary of the method: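 CHO cells stably expressing hSGLT2 were preincubated 10 min at 37 °C in choline (Na+-free) buffer, then exposed 2 h at 37 °C to compound in Na+ uptake buffer with 8 μM 14C-AMG and 1 mM unlabeled AMG. Radioactivity was scintillation counted; IC50 came from nonlinear regression.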

[2] = biological target: Human SGLT1 (hSGLT1) (Homo sapiens (Human), UniProt P13866); test: Inhibitory effects on human SGLT1 activities (14C-AMG uptake, sodium-dependent glucose transport assay); format: cell-based; settings: 37° C. for 2 h, single determinations
Human SGLT1 (hSGLT1), sequence (P13866 whole entry): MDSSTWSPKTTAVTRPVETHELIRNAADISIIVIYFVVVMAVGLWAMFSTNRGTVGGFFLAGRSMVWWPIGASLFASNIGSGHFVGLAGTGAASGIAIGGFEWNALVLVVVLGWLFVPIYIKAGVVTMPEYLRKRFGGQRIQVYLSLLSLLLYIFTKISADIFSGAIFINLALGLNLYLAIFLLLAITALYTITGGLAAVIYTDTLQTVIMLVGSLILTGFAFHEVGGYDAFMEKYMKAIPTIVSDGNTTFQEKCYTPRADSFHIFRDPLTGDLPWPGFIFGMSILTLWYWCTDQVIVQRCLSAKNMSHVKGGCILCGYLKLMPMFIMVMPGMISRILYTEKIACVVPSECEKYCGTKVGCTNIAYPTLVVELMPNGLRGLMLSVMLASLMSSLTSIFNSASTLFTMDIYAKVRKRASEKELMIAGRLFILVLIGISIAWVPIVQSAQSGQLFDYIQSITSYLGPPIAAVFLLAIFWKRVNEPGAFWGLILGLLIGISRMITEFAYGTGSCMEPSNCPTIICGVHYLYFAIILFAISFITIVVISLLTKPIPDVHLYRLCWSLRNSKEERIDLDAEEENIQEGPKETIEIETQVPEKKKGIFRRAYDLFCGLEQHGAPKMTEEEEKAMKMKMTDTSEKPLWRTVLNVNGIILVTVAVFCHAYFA

Human SGLT2 (hSGLT2), sequence (P31639 whole entry): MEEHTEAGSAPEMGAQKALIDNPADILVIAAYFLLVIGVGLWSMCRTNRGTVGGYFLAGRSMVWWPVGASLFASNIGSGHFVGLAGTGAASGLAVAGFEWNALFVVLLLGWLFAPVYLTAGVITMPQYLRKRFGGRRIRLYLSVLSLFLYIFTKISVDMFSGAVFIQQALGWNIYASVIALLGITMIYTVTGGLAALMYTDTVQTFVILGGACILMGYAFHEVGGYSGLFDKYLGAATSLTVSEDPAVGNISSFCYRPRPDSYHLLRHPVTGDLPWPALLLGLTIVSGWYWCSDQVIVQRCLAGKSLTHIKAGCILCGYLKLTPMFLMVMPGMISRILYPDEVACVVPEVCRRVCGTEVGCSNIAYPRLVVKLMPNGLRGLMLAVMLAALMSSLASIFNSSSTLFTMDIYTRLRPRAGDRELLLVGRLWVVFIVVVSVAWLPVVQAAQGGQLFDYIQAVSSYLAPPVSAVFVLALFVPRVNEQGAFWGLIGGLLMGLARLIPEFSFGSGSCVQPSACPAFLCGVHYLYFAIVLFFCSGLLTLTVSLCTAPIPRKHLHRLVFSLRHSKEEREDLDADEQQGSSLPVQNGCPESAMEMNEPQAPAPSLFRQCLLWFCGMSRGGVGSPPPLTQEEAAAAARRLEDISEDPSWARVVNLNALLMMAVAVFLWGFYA

| Compound | pIC50 [1] | pIC50 [2] |
| --- | --- | --- |
| COc1ccc(Cc2cc([C@@H]3O[C@H](CO)[C@@H](O)[C@H](O)[C@H]3O)c3c(c2C)OCO3)cc1 [Compound E063, (2R,3S,4R,5R,6S)-2-(Hydroxymethyl)-6-(6-(4-methoxybenzyl)-7-methylbenzo[d][1,3]dioxol-4-yl)tetrahydro-2H-pyran-3,4,5-triol] | 8.80 | 7.18 |
| Cc1ccc(Cc2cc([C@@H]3O[C@H](CO)[C@@H](O)[C@H](O)[C@H]3O)c3c(c2Cl)CCCO3)cc1 [Compound E052, (2S,3R,4R,5S,6R)-2-(5-Chloro-6-(4-methylbenzyl)chroman-8-yl)-6-(hydroxymethyl)tetrahydro-2H-pyran-3,4,5-triol] | 8.96 | 8.04 |
| OC[C@H]1O[C@@H](c2cc(Cc3cc4ccccc4s3)c(Cl)c3c2OCCO3)[C@H](O)[C@@H](O)[C@@H]1O [Compound E056, (2S,3R,4R,5S,6R)-2-(7-(Benzo[b]thiophen-2-ylmethyl)-8-chloro-2,3-dihydrobenzo[b][1,4]dioxin-5-yl)-6-(hydroxymethyl)tetrahydro-2H-pyran-3,4,5-triol] | 8.66 | 7.85 |
| COc1ccc(Cc2cc([C@@H]3O[C@H](CO)[C@@H](O)[C@H](O)[C@H]3O)c3c(c2Cl)CCCO3)cc1 [Compound E010, (2S,3R,4R,5S,6R)-2-(5-Chloro-6-(4-methoxybenzyl)chroman-8-yl)-6-(hydroxymethyl)tetrahydro-2H-pyran-3,4,5-triol] | 8.80 | 7.77 |
| CCOc1ccc(Cc2cc([C@@H]3O[C@H](CO)[C@@H](O)[C@H](O)[C@H]3O)c3c(c2C)CCCC3)cc1 [Compound E047, (2S,3R,4R,5S,6R)-2-(3-(4-Ethoxybenzyl)-4-methyl-5,6,7,8-tetrahydronaphthalen-1-yl)-6-(hydroxymethyl)tetrahydro-2H-pyran-3,4,5-triol] | 8.89 | 7.57 |

The next molecules have a higher pIC50 [1] than those just listed; values first:

| pIC50 [1] | pIC50 [2] | Compound |
| --- | --- | --- |
| 9.12 | 7.21 | CCc1ccc(Cc2cc([C@@H]3O[C@H](CO)[C@@H](O)[C@H](O)[C@H]3O)c3c(c2Cl)OCCC3)cc1 [Compound E014, (2S,3R,4R,5S,6R)-2-(8-Chloro-7-(4-ethylbenzyl)chroman-5-yl)-6-(hydroxymethyl)tetrahydro-2H-pyran-3,4,5-triol] |
| 9.16 | 6.94 | CCOc1ccc(Cc2cc([C@@H]3O[C@H](SC)[C@@H](O)[C@H](O)[C@H]3O)c3c(c2Cl)CC(C)O3)cc1 (stereo partly drawn) [Compound E020, (2S,3R,4R,5S,6R)-2-(4-Chloro-5-(4-ethoxybenzyl)-2-methyl-2,3-dihydrobenzofuran-7-yl)-6-(methylthio)tetrahydro-2H-pyran-3,4,5-triol] |
| 9.19 | 7.38 | OC[C@H]1O[C@@H](c2cc(Cc3ccc(C4CC4)cc3)c(Cl)c3c2OCCO3)[C@H](O)[C@@H](O)[C@@H]1O [Compound E027, (2S,3R,4R,5S,6R)-2-(8-Chloro-7-(4-cyclopropylbenzyl)-2,3-dihydrobenzo[b][1,4]dioxin-5-yl)-6-(hydroxymethyl)tetrahydro-2H-pyran-3,4,5-triol] |
| 9.31 | 7.49 | CCc1ccc(Cc2cc([C@@H]3O[C@H](CO)[C@@H](O)[C@H](O)[C@H]3O)c3c(c2Cl)CCCC3)cc1 [Compound E043, (2S,3R,4R,5S,6R)-2-(4-Chloro-3-(4-ethylbenzyl)-5,6,7,8-tetrahydronaphthalen-1-yl)-6-(hydroxymethyl)tetrahydro-2H-pyran-3,4,5-triol] |
| 9.43 | 6.79 | C=Cc1ccc(Cc2cc([C@@H]3O[C@H](CO)[C@@H](O)[C@H](O)[C@H]3O)c3c(c2Cl)OCC3)cc1 [Compound E028, (2S,3R,4R,5S,6R)-2-(7-Chloro-6-(4-vinylbenzyl)-2,3-dihydrobenzofuran-4-yl)-6-(hydroxymethyl)tetrahydro-2H-pyran-3,4,5-triol] |

Reference: US9340521B2, “Method for dual inhibition of SGLT1 and SGLT2 using diphenylmethane derivatives” (GREEN CROSS CORPORATION, priority 2013, dated 2016)
